As usually defined, the IC50 is the point on the concentration scale where inhibition reaches its midpoint. A low value points to inhibition by little substance.

One test deals with HCT116-MTAP-KO. Nature of the test: Cell killing in HCT116 isogenic pair (Cell Titer-Glo viability), MTAP knock-out cells. In kind it is cell-based, human. Particulars: 6 days incubation, 0-10 μM, * = more than 50% viability inhibition at tested concentration without a full curve. An excerpt:
(§1) HCT116 cell line (ATCC, CCL-247) was isolated from the colon of an adult with colon cancer. It has a mutation in codon 13 of the ras proto-oncogene and can be used as a positive control for PCR assays of mutation in this codon. HCT116-MTAP-KO was knocked-out-MTAP-gene based HCT116, and a single clone was passed for this assay. HCT116-mock-RNA-KO was knocked-out-mock-gene based HCT116 with MTAP wildtype genotype. The base medium for HCT116 isogenic pair is RPMI 1640, HEPES (Gibco, 22400105). To make the complete growth medium, added the following components to the base medium: fetal bovine serum to a final concentration of 10% (Gibco, 10099-141C). The cell line was grown in a humidified 5% CO2 atmosphere at 37° C. and regularly tested for the presence of mycoplasma with MpcoAlert™ PLUS Mycoplasma Detection Kit (Lonzak LT07-710).
(§2) • Seeded HCT116-mock-RNA-KO (4E2/well) or HCT116-MTAP-KO (4E2/well) cells into a 96-well plate (Greiner: 655090), 100 μL/well. • Incubated at 37° C., 5% CO2, overnight. • Added 50 μL fresh growth medium containing serial dilution of test compounds for a final test compound concentration of 0-10 μM to each well. • Incubated at 37° C., 5% CO2, 6 days. • The cell viability was detected by Cell Titer-Glo (Promega, G7573). Added 70 μL of CeliTiter-Glo® reagent in each well. • Incubated at room temperature for 10 minutes to stabilize luminescent signal. • Analyzed with Microplate Reader (TECAN, SPARK) and fit IC50 using Prism® 9.

The test system of another test is HCT116-mock-RNA-KO. Nature of the test: Cell killing in HCT116 isogenic pair (Cell Titer-Glo viability), mock knock-out cells with MTAP wildtype genotype. In kind it is cell-based, human. Particulars: 6 days incubation, 0-10 μM.
From the text: as §1, §2
Background: ATP-based viability assays read luminescence as a measure of living cells.

As for `C[C@H]1OC[C@@H](N(C)C(=O)c2cc3nc(N)c4c(c3[nH]2)COC4)c2ccc(C(F)(F)F)cc21` [Example 60, 5-amino-N-methyl-N-((1R,4S)-1-methyl-7-(trifluoromethyl)isochroman-4-yl)-6,8-dihydro-1H-furo[3,4-d]pyrrolo[3,2-b]pyridine-2-carboxamide], the concentration for half-maximal inhibition (IC50) in the test on HCT116-MTAP-KO (Homo sapiens, HCT-116, 144 h) worked out at 7.3 nM; with HCT116-mock-RNA-KO (Homo sapiens, HCT-116, 144 h), 857 nM.

For the molecule `CC(=O)N1Cc2cc(C(F)(F)F)ccc2[C@H](N(C)C(=O)c2cc3nc(N)c4c(c3[nH]2)COC4)C1` [Example 98, (S)—N-(2-acetyl-7-(trifluoromethyl)-1,2,3,4-tetrahydroisoquinolin-4-yl)-5-amino-N-methyl-6,8-dihydro-1H-furo[3,4-d]pyrrolo[3,2-b]pyridine-2-carboxamide], the IC50 in the test with HCT116-MTAP-KO (Homo sapiens, HCT-116, 144 h) was 11 nM; with HCT116-mock-RNA-KO (Homo sapiens, HCT-116, 144 h), 1860 nM.

Consider `CCN(C(=O)c1cc2nc(N)c3c(c2[nH]1)COC3)[C@@H]1COc2cc(C(F)(F)F)ccc21` [Example 77, (S)-5-amino-N-ethyl-N-(6-(trifluoromethyl)-2,3-dihydrobenzofuran-3-yl)-6,8-dihydro-1H-furo[3,4-d]pyrrolo[3,2-b]pyridine-2-carboxamide], for which the IC50 with HCT116-MTAP-KO (Homo sapiens, HCT-116, 144 h) is 51 nM; in the test with HCT116-mock-RNA-KO (Homo sapiens, HCT-116, 144 h), over 10000 nM.

For the molecule `Nc1nc2cc(C(=O)N(Cc3ccc(-c4c(F)cccc4F)cn3)Cc3c(F)cccc3F)[nH]c2c2c1COC2` [Example 13, 5-amino-N-(2,6-difluorobenzyl)-N-((5-(2,6-difluorophenyl)pyridin-2-yl)methyl)-6,8-dihydro-1H-furo[3,4-d]pyrrolo[3,2-b]pyridine-2-carboxamide], the IC50 was found to be 4.6 nM in the test with HCT116-MTAP-KO (Homo sapiens, HCT-116, 144 h) and 251 nM in the test with HCT116-mock-RNA-KO (Homo sapiens, HCT-116, 144 h).

For the molecule `C[C@H](c1ncc(C2CC2)cc1F)N(C)C(=O)c1cc2nc(N)c3c(c2[nH]1)CO[C@@H]3C` [Example 142, (R)-5-amino-N—((R)-1-(5-cyclopropyl-3-fluoropyridin-2-yl)ethyl)-N,6-dimethyl-6,8-dihydro-1H-furo[3,4-d]pyrrolo[3,2-b]pyridine-2-carboxamide], the IC50 with HCT116-MTAP-KO (Homo sapiens, HCT-116, 144 h) came out at 2.6 nM; with HCT116-mock-RNA-KO (Homo sapiens, HCT-116, 144 h), 477 nM.

For the molecule `CCC(CC)N(Cc1cc(C)c(C2CC2)cn1)C(=O)c1cc2nc(N)c3c(c2[nH]1)COC3` [Example 109, 5-amino-N-((5-cyclopropyl-4-methylpyridin-2-yl)methyl)-N-(pentan-3-yl)-6,8-dihydro-1H-furo[3,4-d]pyrrolo[3,2-b]pyridine-2-carboxamide], the IC50 with HCT116-MTAP-KO (Homo sapiens, HCT-116, 144 h) turned out to be 24 nM; with HCT116-mock-RNA-KO (Homo sapiens, HCT-116, 144 h) it was 1790 nM.

As for `Cc1cc([C@@H](C)N(C)C(=O)c2cc3nc(N)c4c(c3[nH]2)COC4)c(F)cc1C1CC1` [Example 151, (R)-5-amino-N-(1-(4-cyclopropyl-2-fluoro-5-methylphenyl)ethyl)-N-methyl-6,8-dihydro-1H-furo[3,4-d]pyrrolo[3,2-b]pyridine-2-carboxamide], the IC50 in the test on HCT116-MTAP-KO (Homo sapiens, HCT-116, 144 h) was 85 nM; in the test with HCT116-mock-RNA-KO (Homo sapiens, HCT-116, 144 h), over 10000 nM.

Take `CC(C)N(Cc1ccc(C2CC2)cn1)C(=O)c1cc2nc(N)c3c(c2[nH]1)CO[C@@H]3C` [Example 106, (R)-5-amino-N-((5-cyclopropylpyridin-2-yl)methyl)-N-isopropyl-6-methyl-6,8-dihydro-1H-furo[3,4-d]pyrrolo[3,2-b]pyridine-2-carboxamide]: the 50% inhibitory concentration (IC50) in the test on HCT116-MTAP-KO (Homo sapiens, HCT-116, 144 h) turned out to be 11 nM; in the test on HCT116-mock-RNA-KO (Homo sapiens, HCT-116, 144 h), 2630 nM.

Take `CCN(C(=O)c1cc2nc(N)c3c(c2[nH]1)CO[C@@H]3C)[C@H](C)c1ccc(Br)cc1F` [Example 124, (R)-5-amino-N—((R)-1-(4-bromo-2-fluorophenyl)ethyl)-N-ethyl-6-methyl-6,8-dihydro-1H-furo[3,4-d]pyrrolo[3,2-b]pyridine-2-carboxamide]: the IC50 was 22 nM in the test with HCT116-MTAP-KO (Homo sapiens, HCT-116, 144 h) and 2470 nM in the test with HCT116-mock-RNA-KO (Homo sapiens, HCT-116, 144 h).

For `CCN(C(=O)c1cc2nc(N)c3c(c2[nH]1)COC3)[C@@H]1CO[C@H](C)c2cc(C(F)(F)F)ccc21` [Example 89, 5-amino-N-ethyl-N-((1R,4S)-1-methyl-7-(trifluoromethyl)isochroman-4-yl)-6,8-dihydro-1H-furo[3,4-d]pyrrolo[3,2-b]pyridine-2-carboxamide], the IC50 in the test on HCT116-MTAP-KO (Homo sapiens, HCT-116, 144 h) amounted to 4.1 nM; with HCT116-mock-RNA-KO (Homo sapiens, HCT-116, 144 h), 446 nM.

`COC[C@@H](C)N(Cc1ncc(Br)cc1F)C(=O)c1cc2nc(N)c3c(c2[nH]1)COC3` [Example 49, (R)-5-amino-N-((5-bromo-3-fluoropyridin-2-yl)methyl)-N-(1-methoxypropan-2-yl)-6,8-dihydro-1H-furo[3,4-d]pyrrolo[3,2-b]pyridine-2-carboxamide]: the IC50 came to 6.1 nM with HCT116-MTAP-KO (Homo sapiens, HCT-116, 144 h) and 835 nM in the test on HCT116-mock-RNA-KO (Homo sapiens, HCT-116, 144 h).

Regarding `COCCN(C(=O)c1cc2nc(N)c3c(c2[nH]1)COC3)[C@H](C)c1ncc(C(F)(F)F)cc1F` [Example 157, (R)-5-amino-N-(1-(3-fluoro-5-(trifluoromethyl)pyridin-2-yl)ethyl)-N-(2-methoxyethyl)-6,8-dihydro-1H-furo[3,4-d]pyrrolo[3,2-b]pyridine-2-carboxamide], the IC50 in the test on HCT116-MTAP-KO (Homo sapiens, HCT-116, 144 h) was 64 nM; in the test on HCT116-mock-RNA-KO (Homo sapiens, HCT-116, 144 h) it was over 10000 nM.

As for `CN(C(=O)c1cc2nc(N)c3c(c2[nH]1)COC3)[C@@H]1COCc2cc(C3CC3)cc(F)c21` [Example 95, (S)-5-amino-N-(7-cyclopropyl-5-fluoroisochroman-4-yl)-N-methyl-6,8-dihydro-1H-furo[3,4-d]pyrrolo[3,2-b]pyridine-2-carboxamide], the IC50 with HCT116-MTAP-KO (Homo sapiens, HCT-116, 144 h) worked out at 18 nM; with HCT116-mock-RNA-KO (Homo sapiens, HCT-116, 144 h), 1780 nM.

On to `C[C@H]1OCc2c1c(N)nc1cc(C(=O)N(Cc3ccc(C(F)(F)F)cn3)Cc3ncccc3F)[nH]c21` [Example 38, (R)-5-amino-N-((3-fluoropyridin-2-yl)methyl)-6-methyl-N-((5-(trifluoromethyl)pyridin-2-yl)methyl)-6,8-dihydro-1H-furo[3,4-d]pyrrolo[3,2-b]pyridine-2-carboxamide], for which the IC50 with HCT116-MTAP-KO (Homo sapiens, HCT-116, 144 h) was 6.3 nM; in the test on HCT116-mock-RNA-KO (Homo sapiens, HCT-116, 144 h), 665 nM.

As for `CN(C(=O)c1cc2nc(N)c3c(c2[nH]1)COC3)[C@H]1COCc2nc(C3CC3)ccc21` [Example 88, (R)-5-amino-N-(2-cyclopropyl-5,8-dihydro-6H-pyrano[3,4-b]pyridin-5-yl)-N-methyl-6,8-dihydro-1H-furo[3,4-d]pyrrolo[3,2-b]pyridine-2-carboxamide], the IC50 with HCT116-MTAP-KO (Homo sapiens, HCT-116, 144 h) is 1410 nM; with HCT116-mock-RNA-KO (Homo sapiens, HCT-116, 144 h), over 10000 nM.

With `Nc1nc2cc(C(=O)N(Cc3ncc(C4CC4)cc3F)C3CCC3)[nH]c2c2c1COC2` [Example 69, 5-amino-N-cyclobutyl-N-((5-cyclopropyl-3-fluoropyridin-2-yl)methyl)-6,8-dihydro-1H-furo[3,4-d]pyrrolo[3,2-b]pyridine-2-carboxamide], the IC50 with HCT116-MTAP-KO (Homo sapiens, HCT-116, 144 h) was determined as 26 nM; with HCT116-mock-RNA-KO (Homo sapiens, HCT-116, 144 h), 2700 nM.

Regarding `COC[C@@H](C)N(Cc1c(F)cc(C#N)cc1F)C(=O)c1cc2nc(N)c3c(c2[nH]1)COC3` [Example 46, (R)-5-amino-N-(4-cyano-2,6-difluorobenzyl)-N-(1-methoxypropan-2-yl)-6,8-dihydro-1H-furo[3,4-d]pyrrolo[3,2-b]pyridine-2-carboxamide], the 50% inhibitory concentration (IC50) came to 9 nM with HCT116-MTAP-KO (Homo sapiens, HCT-116, 144 h) and 854 nM in the test on HCT116-mock-RNA-KO (Homo sapiens, HCT-116, 144 h).

For `C[C@H](c1c(F)cc(Br)cc1F)N(C)C(=O)c1cc2nc(N)c3c(c2[nH]1)COC3` [Example 123, (R)-5-amino-N-(1-(4-bromo-2,6-difluorophenyl)ethyl)-N-methyl-6,8-dihydro-1H-furo[3,4-d]pyrrolo[3,2-b]pyridine-2-carboxamide], the IC50 came out at 46 nM with HCT116-MTAP-KO (Homo sapiens, HCT-116, 144 h) and 4910 nM in the test with HCT116-mock-RNA-KO (Homo sapiens, HCT-116, 144 h).

`CCN(C(=O)c1cc2nc(N)c3c(c2[nH]1)CO[C@@H]3C)[C@@H](C)c1ccc(Br)cc1F` [Example 125]: the IC50 in the test with HCT116-MTAP-KO stood at 365 nM; in the test with HCT116-mock-RNA-KO it was 7460 nM.

As to `CCN(C(=O)c1cc2nc(N)c3c(c2[nH]1)COC3)[C@@H](C)c1ncc(Br)cc1F` [Example 144, (S)-5-amino-N-(1-(5-bromo-3-fluoropyridin-2-yl)ethyl)-N-ethyl-6,8-dihydro-1H-furo[3,4-d]pyrrolo[3,2-b]pyridine-2-carboxamide], the 50% inhibitory concentration (IC50) in the test with HCT116-MTAP-KO (Homo sapiens, HCT-116, 144 h) was 543 nM; in the test on HCT116-mock-RNA-KO (Homo sapiens, HCT-116, 144 h) it was over 10000 nM.

With `C[C@@H]1OC[C@H](N(C)C(=O)c2cc3nc(N)c4c(c3[nH]2)COC4)c2ccc(Br)cc21` [Example 78, 5-amino-N-((1S,4R)-7-bromo-1-methylisochroman-4-yl)-N-methyl-6,8-dihydro-1H-furo[3,4-d]pyrrolo[3,2-b]pyridine-2-carboxamide], the IC50 with HCT116-MTAP-KO (Homo sapiens, HCT-116, 144 h) was 624 nM; in the test with HCT116-mock-RNA-KO (Homo sapiens, HCT-116, 144 h), 2930 nM.

With `N#Cc1cnccc1-c1ccc(CN(C(=O)c2cc3nc(N)c4c(c3[nH]2)COC4)[C@@H]2CCCc3cccnc32)nc1` [Example 11, (R)-5-amino-N-((3′-cyano-[3,4′-bipyridin]-6-yl)methyl)-N-(5,6,7,8-tetrahydroquinolin-8-yl)-6,8-dihydro-1H-furo[3,4-d]pyrrolo[3,2-b]pyridine-2-carboxamide], the IC50 with HCT116-MTAP-KO (Homo sapiens, HCT-116, 144 h) amounted to 3.8 nM; with HCT116-mock-RNA-KO (Homo sapiens, HCT-116, 144 h), 69 nM.
